# Measurements as given in patent publication US20100040568A1, “Steroidal compounds as melanogenesis modifiers and uses thereof” (SkinMedica, Inc., priority 2008, published 2010).
# “Also recorded” adds a separate entry of the source.
# How the values were obtained:
# [1] = tested on: Tyrosinase gene family proteins; experiment: Immunoblot of tyrosinase gene family proteins in melan-a cells; assay type: cell-based, murine; conditions: various concentrations, 72 hours
# Experimental: Melan-a cells were incubated with various concentrations of conessine for 72 hours. Cell lysates were prepared and separated by 7.5% sodium dodecyl sulfate-polyacrylamide gel and transferred to Immobilon-P membranes. Tyrosinase gene family proteins were detected with antibodies against each protein.
# [2] = tested on: Lamp-1 (lysome-associated membrane protein 1); experiment: Level of Lamp-1 in melan-a cells; assay type: cell-based, murine
# Experimental: Melan-a cells were incubated with various concentrations of conessine for 72 hours. Cell lysates were prepared and separated by 7.5% sodium dodecyl sulfate-polyacrylamide gel and transferred to Immobilon-P membranes. Tyrosinase gene family proteins were detected with antibodies against each protein. […] The effect of conessine on the level of Lamp-1 in melan-a cells was examined. A common lineage among the melanosomes and lysosomes is well accepted. Lamp-1 (lysome-associated membrane protein 1) is a lysosome marker. […] Thus, conessine treatment likely results in decreased degradation of both Lamp-1 and tyrosinase gene family proteins (FIG. 12d), thus unexpectedly acting as a melanogenesis […].
# [3] = tested on: Asian skin equivalent (MEL-A); experiment: MelanoDerm pigmentation assay, Asian skin equivalent; assay type: cell-based, human
# Description: (§1) MelanoDerm™, made by MatTek Corp., is a viable reconstituted three-dimensional human skin equivalent containing normal melanocytes and keratinocytes that are derived from African-American (MEL-B), Asian (MEL-A) or Caucasian (MEL-C) donors. Both MEL-A and MEL-B tissues were used in the current study, and they were maintained in the NMM-113 medium as recommended by the manufacturer.
# Tissues were taken out on Days 13 and 16 for the various assays. 30% ethanol: 70% propylene glycol was used as a negative control and the well-known pigmentation inhibitor, arbutin (at concentration of 3 mg/ml), was used as a positive control.
# (§2) The experiments were repeated twice on both MEL-A and MEL-B tissues from different lots to make sure that the results are reproducible (study 1 or 2). For each experiment, six tissues were treated with conessine, and six were treated with […] (30% ethanol: 70% PEG) or arbutin if applicable. For MEL-B, on day 10, three tissues under each treatment condition were taken out, and one was used for histological studies and the other two were used for the melanin assay. The same protocol was followed with the MEL-B samples after 13 days' treatment and MEL-A after either 13 or 16 days' treatments.
# (§3) Procedure 1: the effects of conessine on melanin synthesis in MEL-A or B were evaluated by light microscopy (views from the top surface of the tissue). Procedure 2: the distribution of melanin in the treated-MEL-A or B was accessed by image analysis using Fontana-Masson stained histological sections (views from the side of the tissue).
# (§4) MelanoDerm™, made by MatTek Corp., is a viable reconstituted three-dimensional human skin equivalent containing normal melanocytes and keratinocytes that are derived from African-American (MEL-B), Asian (MEL-A) or Caucasian (MEL-C) donors. It has human skin-like structure and undergoes progressive tissue darkening over the course of 2-3 weeks. MelanoDerm™ provides a useful in vitro means for evaluation of agents that modulate pigmentation. Human skin equivalent models such as MelanoDerm™ provide an alternative to clinical and animal testing for evaluating the effects of putative bioactive compounds on mammalian pigmentation. MelanoDerm™ is considered a more physiologically relevant model than melanocytes alone or melanocyte-keratinocyte co-cultures. Both MEL-A and MEL-B tissues were used in the current study, and they were maintained in the NMM-113 medium as recommended by the manufacturer. In this model, substantial accumulation of newly synthesized melanin occurs over a two to three week period.
# (§5) Conessine and Licorice extract were dissolved in 30% ethanol: 70% propylene glycol (PEG) to a final concentration of 0.036% (0.36 mg/ml). A 25 μl aliquot of each compound was applied topically to the Asian MelanoDerm™ tissue (MEL-A) on Days 0, 1, 3, 6, 8, 10 and 13. The MelanoDerm™ tissues were fed every other day with 5 ml fresh NMM-113. Prior to each application, the tissues were washed with 1 ml PBS to remove any residual test compound. Tissues were fixed on Days 13 and 16 for microscopic analysis and histological evaluation. In addition, duplicate tissues were frozen on Days 13 and 16 for melanin assay. 30% ethanol: 70% PEG was used as negative control. Cell viability was measured in accordance with the manufacturer's instructions using the MTT assay kit (MatTek Corp., Ashland, Mass. 01721). One MEL-A tissue from each condition was harvested on day 2 and 7, and MTT assay was performed. Similar experiments were performed on MEL-B.
# Quantitative melanin assay was performed on the treated MEL-A tissues.
# [4] = tested on: African-American skin equivalent (MEL-B); experiment: MelanoDerm pigmentation assay, African-American skin equivalent; assay type: cell-based, human
# Experimental: as §1
# Conessine (from Sigma) was dissolved in 30% ethanol: 70% propylene glycol to a final concentration of 1.0 mM (equal to 356.6 μg/ml), and this was maintained constant and used on all samples tested. A 25 μl of its aliquot was applied topically to the MelanoDerm™ tissue (MEL-B) on Days 0, 1, 3, 6, 8 and 10. The MelanoDerm™ tissues were fed every other day with 5 ml fresh NMM-113. Prior to each application, the tissues were washed with 1 ml PBS to remove any residual test compound. Tissues were fixed on Days 10 and 13 for microscopic analysis and histological evaluation. In addition, duplicate tissues were frozen on Days 10 and 13 for the melanin assay.
# as §2, §3, §4, §5
# [5] = tested on: MEL-A; experiment: MTT cell viability of treated MelanoDerm tissue; assay type: cell-based, human; conditions: 0.036% topical
# Experimental: as §5, with “performed.” for “performed. Similar experiments were performed on MEL-B.”
# [6] = 0.036% topical, day 13, 8 sections
# [7] = arbutin 3 mg/ml, conessine and licorice 0.36 mg/ml, extract 1:50
compound,measurement,setting,value
"CC1C2CCC3C4CC=C5CC(N(C)C)CCC5(C)C4CCC32CN1C (stereo not shown) [Compound 1, Conessine]",cellular levels of tyrosinase family proteins,[1],increases cellular levels of tyrosinase family proteins in a dose-dependent manner
same,cellular level of Lamp-1,[2],increases cellular level of Lamp-1
same,decreased melanin content (quantitative melanin assay),"[3]; 0.036% topical, both 13 and 16 days, compared to vehicle-treated",30-40%
same,"melanin content compared to the vehicle-treated tissues (Fontana-Masson sections, quantitative analysis)",[3]; [6],49.90%
same,"melanin content compared to the vehicle-treated tissues (Fontana-Masson sections, quantitative analysis)","[3]; 0.036% topical, day 16, 8 sections",42.31%
same,effectiveness as depigmenting agent (comparison),[3]; [7],more effective than either Licorice extract or arbutin
same,pigmentation by light microscopy,"[3]; conessine 0.036% (0.36 mg/ml), extract diluted 1:50, 25 μl topical, days 13 and 16",strikingly decreased; also recorded: becomes lighter
same,melanin content by Fontana-Masson staining,"[3]; conessine and licorice 0.36 mg/ml, extract diluted 1:50, 25 μl topical, days 13 and 16",significant decrease in the relative melanin content
same,"decrease of melanin content (Fontana-Masson staining, image analysis)","[4]; 1.0 mM topical, days 10 and 13, compared with control-treated",50-60%
same,colour by light microscopy,[4]; 0.036% topical,considerable decrease in the color of MEL-B
same,decrease of melanin content (quantitative melanin assay),"[4]; 0.036% topical, 10 or 13 days",about 30%
same,"melanin content compared to the vehicle-treated tissues (Fontana-Masson sections, quantitative analysis)","[4]; 0.036% topical, day 10, 8 sections",73.61%
same,"melanin content compared to the vehicle-treated tissues (Fontana-Masson sections, quantitative analysis)",[4]; [6],62.43%
same,effectiveness as depigmenting agent (comparison),[4]; [7],more effective than either Licorice extract or arbutin
same,melanin content by Fontana-Masson staining,"[4]; conessine 0.36 mg/ml, extract diluted 1:50, 25 μl topical, days 10 and 13",decreases significantly
same,cytotoxicity of treated tissue,[5],no detectable cytotoxicity
